Reference: ChEMBL document CHEMBL3885861, “Open TG-GATES”

Species: Rattus norvegicus
Test: Open TG-GATES - Regimen: Single
Assay type: toxicity, organism-based, Sprague-Dawley
Design: regimen Single, gender Male, age 6 weeks
Settings: in vivo, po, route gavage; for WBC / APTT / Bas / Eos / Fbg / Hb / Ht / Lym / MCH / MCHC / MCV / Mono / Neu / PT / Plat / RBC / Ret: tissue Blood; for KIDNEY_L / KIDNEY_R / KIDNEY_TOTAL: tissue Kidney; for LIVER: tissue Liver; for ALP / ALT / AST / BUN / CRE / Ca / Cl / DBIL / GLC / IP / K / LDH / Na / PL / RALB / TBIL / TC / TP / gamma-GTP: tissue Plasma
[1] = 5 mg/kg, 9 h, dose level Middle
[2] = 5 mg/kg, 24 h, dose level Middle

## O=P1(N(CCCl)CCCl)NCCCO1 (stereo unspecified) [CYCLOPHOSPHAMIDE ANHYDROUS]
[1]
  WBC: 57.2 x10_2/uL
  KIDNEY_L: 0.9 g
  KIDNEY_R: 0.9 g
  KIDNEY_TOTAL: 1.8 g
  LIVER: 7.9 g
  ALP: 1360.2 IU/L
  ALT: 35.2 IU/L
  AST: 65.8 IU/L
  BUN: 9 mg/dL
  CRE: 0.1 mg/dL
  Ca: 10.5 mg/dL
  Cl: 106.6 meq/L
  DBIL: 0.002 mg/dL
  GLC: 179.4 mg/dL
  IP: 9.7 mg/dL
  K: 4 meq/L
  LDH: 146.8 IU/L
  Na: 143.6 meq/L
  PL: 129.8 mg/dL
  RALB: 3 g/dL
  TBIL: 0.042 mg/dL
  TC: 76.8 mg/dL
  TP: 5.5 g/dL
  gamma-GTP: 1 IU/L
[2]
  TERMINAL_BW: 203.3 g
  APTT: 22.1 s
  Bas: 0%
  Eos: 1%
  Fbg: 307.6 mg/dL
  Hb: 12.8 g/dL
  Ht: 38.5%
  Lym: 88.4%
  MCH: 21.4 pg
  MCHC: 33.3%
  MCV: 64.1 fL
  Mono: 1.6%
  Neu: 8%
  PT: 16.2 s
  Plat: 134.5 x10_4/uL
  RBC: 600.4 x10_4/ul
  Ret: 7.3%
  WBC: 58.1 x10_2/uL
  KIDNEY_L: 0.9 g
  KIDNEY_R: 0.9 g
  KIDNEY_TOTAL: 1.9 g
  LIVER: 9.4 g
  ALP: 1835.8 IU/L
  ALT: 48.6 IU/L
  AST: 73.2 IU/L
  BUN: 15.4 mg/dL
  CRE: 0.2 mg/dL
  Ca: 10.7 mg/dL
  Cl: 105.2 meq/L
  DBIL: 0.002 mg/dL
  GLC: 180.2 mg/dL
  IP: 8 mg/dL
  K: 4.2 meq/L
  LDH: 156.8 IU/L
  Na: 142.8 meq/L
  PL: 148.4 mg/dL
  RALB: 3 g/dL
  TBIL: 0.014 mg/dL
  TC: 76.2 mg/dL
  TP: 5.5 g/dL
  gamma-GTP: 1 IU/L
15 mg/kg, 3 h, dose level High
  TERMINAL_BW: 195.2 g
  APTT: 21.4 s
  Bas: 0%
  Eos: 0.8%
  Fbg: 291.2 mg/dL
  Hb: 13 g/dL
  Ht: 38.9%
  Lym: 76.2%
  MCH: 21.2 pg
  MCHC: 33.4%
  MCV: 63.4 fL
  Mono: 1.8%
  Neu: 20.2%
  PT: 15.6 s
  Plat: 120 x10_4/uL
  RBC: 613.8 x10_4/ul
  Ret: 8.2%
  WBC: 75.9 x10_2/uL
  KIDNEY_L: 0.9 g
  KIDNEY_R: 0.9 g
  KIDNEY_TOTAL: 1.7 g
  LIVER: 9 g
  ALP: 1506.2 IU/L
  ALT: 38.8 IU/L
  AST: 70.6 IU/L
  BUN: 11 mg/dL
  CRE: 0.1 mg/dL
  Ca: 10.7 mg/dL
  Cl: 105.6 meq/L
  DBIL: 0 mg/dL
  GLC: 179.4 mg/dL
  IP: 9.1 mg/dL
  K: 4.1 meq/L
  LDH: 197.8 IU/L
  Na: 142.6 meq/L
  PL: 136 mg/dL
  RALB: 2.9 g/dL
  TBIL: 0.032 mg/dL
  TC: 71.8 mg/dL
  TP: 5.3 g/dL
  gamma-GTP: 1 IU/L
15 mg/kg, 3 h, dose level Low
  TERMINAL_BW: 191.1 g
  APTT: 16.4 s
  Fbg: 273.4 mg/dL
  Hb: 12.8 g/dL
  Ht: 38.1%
  Lym: 81.6%
  MCH: 21 pg
  MCHC: 33.5%
  MCV: 62.8 fL
  Mono: 2.8%
  Neu: 14.2%
  PT: 13.8 s
  Plat: 112.1 x10_4/uL
  RBC: 608.2 x10_4/ul
  Ret: 8.6%
  WBC: 94.2 x10_2/uL
  KIDNEY_L: 0.8 g
  KIDNEY_R: 0.8 g
  KIDNEY_TOTAL: 1.6 g
  LIVER: 8.5 g
  ALP: 1407.8 IU/L
  ALT: 39 IU/L
  AST: 74.2 IU/L
  BUN: 10.2 mg/dL
  CRE: 0.2 mg/dL
  Ca: 10.9 mg/dL
  DBIL: 0.014 mg/dL
  GLC: 173.8 mg/dL
  IP: 8.1 mg/dL
  K: 4.4 meq/L
  LDH: 64 IU/L
  Na: 141.2 meq/L
  PL: 136.4 mg/dL
  RALB: 2.4 g/dL
  TBIL: 0.056 mg/dL
